In series [1] the target is T1, Nuclear factor erythroid 2-related factor 2 (Mus musculus) (UniProt Q60795).
T1 sequence (whole entry): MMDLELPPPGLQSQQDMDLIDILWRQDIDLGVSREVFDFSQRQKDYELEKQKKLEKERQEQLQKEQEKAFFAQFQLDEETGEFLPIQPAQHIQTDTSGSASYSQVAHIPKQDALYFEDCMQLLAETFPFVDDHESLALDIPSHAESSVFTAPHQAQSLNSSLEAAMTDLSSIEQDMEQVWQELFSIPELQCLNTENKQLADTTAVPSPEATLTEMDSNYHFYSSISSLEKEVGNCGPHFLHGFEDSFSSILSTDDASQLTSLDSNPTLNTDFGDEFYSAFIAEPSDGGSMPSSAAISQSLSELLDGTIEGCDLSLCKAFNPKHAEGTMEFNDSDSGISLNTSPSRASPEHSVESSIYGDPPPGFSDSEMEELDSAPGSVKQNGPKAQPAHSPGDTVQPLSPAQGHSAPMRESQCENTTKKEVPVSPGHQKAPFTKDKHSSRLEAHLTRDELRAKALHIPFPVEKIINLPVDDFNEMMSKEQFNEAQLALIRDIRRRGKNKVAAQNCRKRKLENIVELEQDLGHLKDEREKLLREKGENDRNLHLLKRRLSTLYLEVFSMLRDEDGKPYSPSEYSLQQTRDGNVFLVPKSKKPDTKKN
As to the kind of experiment: Activation of Nrf2 in mouse Heap1c1c7 cells assessed as induction of NAD(P)H:quinone reductase activity at 6.25 uM pretreated for 1 hr followed by co-treatment with p38 MAPK inhibitor SB203580 for 24 hrs. The series is classed as cell-based.

In series [2] the target is T2, Nuclear factor erythroid 2-related factor 2 (Homo sapiens) (UniProt Q16236).
T2 sequence (whole entry): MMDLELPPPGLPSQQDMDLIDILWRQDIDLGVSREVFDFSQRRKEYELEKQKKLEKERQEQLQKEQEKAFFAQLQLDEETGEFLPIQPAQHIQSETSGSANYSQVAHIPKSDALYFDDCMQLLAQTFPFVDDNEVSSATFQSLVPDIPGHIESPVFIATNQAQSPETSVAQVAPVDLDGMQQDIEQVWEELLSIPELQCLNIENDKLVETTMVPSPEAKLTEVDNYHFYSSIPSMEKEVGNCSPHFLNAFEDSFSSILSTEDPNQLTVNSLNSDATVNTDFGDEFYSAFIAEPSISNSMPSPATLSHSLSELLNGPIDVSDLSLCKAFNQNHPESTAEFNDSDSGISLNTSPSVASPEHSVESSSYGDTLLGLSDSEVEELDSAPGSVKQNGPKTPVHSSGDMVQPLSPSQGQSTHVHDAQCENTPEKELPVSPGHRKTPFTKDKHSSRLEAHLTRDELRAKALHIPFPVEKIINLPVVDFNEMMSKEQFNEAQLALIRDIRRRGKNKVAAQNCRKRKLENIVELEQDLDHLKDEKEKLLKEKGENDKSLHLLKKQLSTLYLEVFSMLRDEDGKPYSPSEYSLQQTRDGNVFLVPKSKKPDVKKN
As to the kind of experiment: Activation of Nrf2 in human MDA-MB-231 cells assessed as upregulation of gamma-GCS protein expression after 16 hrs by immunoblot analysis. The series is classed as cell-based.

In series [3] the target is T2, Nuclear factor erythroid 2-related factor 2 (Homo sapiens). As to the kind of experiment: Activation of Nrf2 in human BEAS2B cells assessed as upregulation of NQO1 protein expression at 0.31 to 20 uM after 18 hrs by immunoblot analysis. The series is classed as cell-based. A general note: Immunoblotting shows a protein as a band on a membrane.
The target is the same in series [4]. Nature of the series: Activation of Nrf2 in human BEAS2B cells assessed as upregulation of Nrf2 protein expression at 50 to 100 uM after 18 hrs by immunoblot analysis. The class given is cell-based.
For series [5] the target is unchanged. Nature of the series: Activation of Nrf2 in human BEAS2B cells assessed as upregulation of NQO1 protein expression at 50 to 100 uM after 18 hrs by immunoblot analysis. The class given is cell-based.
Series [6] has the same target. Nature of the series: Activation of Nrf2 in human BEAS2B cells assessed as upregulation of Nrf2 protein expression at 6.25 uM after 8 to 24 hrs by immunoblot analysis. The class given is cell-based.
Series [7] has the same target. As to the kind of experiment: Activation of Nrf2 in human BEAS2B cells assessed as upregulation of Nrf2 protein expression at 3.12 to 25 uM after 12 hrs by immunoblot analysis. The class given is cell-based.
Series [8] has as its target T1, Nuclear factor erythroid 2-related factor 2 (Mus musculus). Nature of the series: Activation of Nrf2 in mouse Heap1c1c7 cells assessed as induction of NAD(P)H:quinone reductase activity at 6.25 uM pretreated for 1 hr followed by co-treatment with PI3K inhibitor LY294002 for 24 hrs. The class given is cell-based.
Series [9] shares this target. As to the kind of experiment: Activation of Nrf2 in mouse Heap1c1c7 cells assessed as induction of NAD(P)H:quinone reductase activity at 6.25 uM pretreated for 1 hr followed by co-treatment with MEK1/2 inhibitor PD98059 for 24 hrs. The series is classed as cell-based.
The target is the same in series [10]. Nature of the series: Activation of Nrf2 in mouse Heap1c1c7 cells assessed as induction of NAD(P)H:quinone reductase activity at 6.25 uM pretreated for 1 hr followed by co-treatment with MEK1/2 inhibitor Uo126 for 24 hrs. The series is classed as cell-based.
Series [11] addresses T2, Nuclear factor erythroid 2-related factor 2 (Homo sapiens). Nature of the series: Activation of Nrf2 in human BEAS2B cells assessed as upregulation of Nrf2 protein expression at 6.25 uM pretreated for 1 hr followed by co-treatment with PI3K inhibitor LY294002 for 18 hrs by immunoblot analysis. The series is classed as cell-based.
For series [12] the target is unchanged. As to the kind of experiment: Activation of Nrf2 in human BEAS2B cells assessed as upregulation of Nrf2 protein expression at 6.25 uM pretreated for 1 hr followed by co-treatment with MEK1/2 inhibitor PD98059 for 18 hrs by immunoblot analysis. The series is classed as cell-based.
For series [13] the target is unchanged. As to the kind of experiment: Activation of Nrf2 in human BEAS2B cells assessed as upregulation of Nrf2 protein expression at 6.25 uM pretreated for 1 hr followed by co-treatment with PKC inhibitor Ro-31-8220 for 18 hrs by immunoblot analysis. The series is classed as cell-based.
The target is the same in series [14]. Nature of the series: Activation of Nrf2 in human BEAS2B cells assessed as upregulation of NQO1 protein expression at 6.25 uM pretreated for 1 hr followed by co-treatment with MEK1/2 inhibitor PD98059 for 18 hrs by immunoblot analysis. The series is classed as cell-based.
Series [15] has the same target. As to the kind of experiment: Activation of Nrf2 in human BEAS2B cells assessed as upregulation of NQO1 protein expression at 6.25 uM pretreated for 1 hr followed by co-treatment with PKC inhibitor Go6983 for 18 hrs by immunoblot analysis. The class given is cell-based.
The subject of series [16] is BEAS-2B. As to the kind of experiment: Effect on reactive oxygen species production in human BEAS2B cells at 6.25 uM treated for 8 hrs. The series is classed as ADME, cell-based.

The source made the active and inactive calls. The rule behind the calls is not given here.

Turning to `COc1ccc(-c2coc3cc(OC)cc(O)c3c2=O)cc1` [4',7-DIMETHOXY-5-HYDROXYGENISTEIN], the result in [1], in [4], in series [5], in series [8], in series [9] and in series [11] was inactive. Also, the result in series [12], in series [13], in series [14] and in series [15] was inactive. Also, the Activity entry in series [2] is “Dose-dependent effect”; in series [3], “Dose-dependent effect”; in series [16] it was “Non-Toxic”. Moreover, the result in series [6], in series [7] and in [10] was Active.
